Measured values reported in the CheMixHub drug solubility set.

Assay: xn = mol fraction of the nth substance listed, in the solute-free solvent

CC(C)OC(=O)C(C)NP(=O)(OCC1OC(n2ccc(=O)[nH]c2=O)C(C)(F)C1O)Oc1ccccc1 (stereo unspecified) + CC(C)=O + O
solubility (g/100 g solution)
Details | 278.15 K | 283.15 K | 288.15 K | 293.15 K | 298.15 K | 303.15 K | 308.15 K | 313.15 K | 318.15 K
x2 = 0.03333 | 0.447 | 0.659 | 0.884 | 1.19 | 1.57 | 2.08 | 2.72 | 3.52 | 4.39
x2 = 0.07199 | 1.86 | 2.63 | 3.43 | 4.47 | 5.72 | 7.3 | 9.16 | 11.4 | 13.7
x2 = 0.1174 | 3.81 | 5.24 | 6.7 | 8.54 | 10.7 | 13.3 | 16.2 | 19.6 | 23.1
x2 = 0.1714 | 5.39 | 7.25 | 9.19 | 11.6 | 14.2 | 17.4 | 21 | 25.1 | 29.1
x2 = 0.2368 | 6.68 | 8.82 | 11.1 | 13.8 | 16.9 | 20.4 | 24.2 | 28.4 | 32.6
x2 = 0.3176 | 8.37 | 10.8 | 13.6 | 16.7 | 20.2 | 24 | 28.1 | 32.4 | 36.8
x2 = 0.42 | 11.2 | 14.2 | 17.5 | 21.1 | 24.9 | 28.9 | 33.3 | 37.8 | 42.6
x2 = 0.5538 | 15 | 18.1 | 21.8 | 26.1 | 30.7 | 35.3 | 40.1 | 45 | 49.6
x2 = 0.7363 | 18.3 | 22.9 | 27.4 | 32.1 | 37.1 | 42.2 | 47 | 51.8 | 56.6
